T/C data for 24 compounds are collected here from PubChem BioAssay AID256 (DTP/NCI, 2004).

The test relates to CD2F1 mice, L1210 leukemia ip, survival T/C. Description: NCI In Vivo Anticancer Drug Screen. Data for tumor model L1210 Leukemia (intraperitoneal) in CD2F1 (CDF1) mice. The following applies: higher = longer survival. A digest of the protocol:
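Activity against a transplanted murine tumor was judged by comparing the compound group with a vehicle group. The outcome in the treated animals was divided by that in the controls.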

Setting [1] is: endpoint: mean survival time, dose: 50.0 mg/kg/injection, schedule: Q01DX009 (ip), vehicle: Klucel (hydroxypropylcellulose) (HPC).
Where [2] appears, read: endpoint: mean survival time, dose: 100.0 mg/kg/injection, schedule: Q01DX009 (ip), vehicle: Klucel (hydroxypropylcellulose) (HPC).
Where [3] appears, read: endpoint: mean survival time, dose: 100.0 mg/kg/injection, schedule: Q04DX003 (ip), vehicle: saline with Tween-80.
[4] abbreviates: endpoint: mean survival time, dose: 200.0 mg/kg/injection, schedule: Q04DX003 (ip), vehicle: saline with Tween-80.
The mark [5] stands for this setting: endpoint: mean survival time, dose: 400.0 mg/kg/injection, schedule: Q04DX003 (ip), vehicle: saline with Tween-80.
[6] abbreviates: endpoint: mean survival time, dose: 100.0 mg/kg/injection, schedule: Q01DX001 (ip), vehicle: saline.
The mark [7] stands for this setting: endpoint: mean survival time, dose: 200.0 mg/kg/injection, schedule: Q01DX001 (ip), vehicle: saline.
[8] abbreviates: endpoint: mean survival time, dose: 400.0 mg/kg/injection, schedule: Q01DX001 (ip), vehicle: saline.
The mark [9] stands for this setting: endpoint: mean survival time, dose: 100.0 mg/kg/injection, schedule: Q01DX009 (ip), vehicle: saline with Tween-80.
[10] abbreviates: endpoint: mean survival time, dose: 200.0 mg/kg/injection, schedule: Q01DX009 (ip), vehicle: saline with Tween-80.
The mark [11] stands for this setting: endpoint: mean survival time, dose: 400.0 mg/kg/injection, schedule: Q01DX009 (ip), vehicle: saline with Tween-80.

Molecules are shown by their SMILES. Several values for one entry are separate records, joined by “and”; a condition that tells them apart may be missing. Identical values can stand only once. Inconclusive results and toxic doses are left out.

Consider `N#CCS(=O)(=O)c1ccccc1`, for which the T/C reads like this: (endpoint: mean survival time, dose: 12.5 mg/kg/injection, schedule: Q01DX001 (ip), vehicle: saline with Tween-80) 95 % of control; (endpoint: mean survival time, dose: 25.0 mg/kg/injection, schedule: Q01DX001 (ip), vehicle: saline with Tween-80) 98 % of control; (endpoint: mean survival time, dose: 50.0 mg/kg/injection, schedule: Q01DX001 (ip), vehicle: saline with Tween-80) 96 % of control and 98 % of control.
As to `COc1ccc2cc[n+](C)c(Cc3ccc(OC)c(Oc4ccc(Cc5c(OC)ccc6cc[n+](C)cc56)cc4)c3)c2c1`, the T/C (endpoint: mean survival time, dose: 1.56 mg/kg/injection, schedule: Q04DX003 (ip), vehicle: other) was 98 % of control; the T/C (endpoint: mean survival time, dose: 3.13 mg/kg/injection, schedule: Q04DX003 (ip), vehicle: other) was 102 % of control; the T/C (endpoint: mean survival time, dose: 6.25 mg/kg/injection, schedule: Q04DX003 (ip), vehicle: other) was 98 % of control and 103 % of control.
As to `Cc1ccc(C2=C(Cl)C(=O)C(c3ccc(C)cc3)=C(Cl)C2=O)cc1`, the T/C by setting is: (endpoint: mean survival time, dose: 75.0 mg/kg/injection, schedule: Q01DX001 (ip), vehicle: other) 92 % of control; (endpoint: mean survival time, dose: 150.0 mg/kg/injection, schedule: Q01DX001 (ip), vehicle: other) 92 % of control; (endpoint: mean survival time, dose: 300.0 mg/kg/injection, schedule: Q01DX001 (ip), vehicle: other) 94 % of control.
Take `CSc1nnnn1-c1ccccc1`: the T/C runs as follows: under setting [1], 111 % of control; under setting [2], 104 % of control.
Take `N#CCCCN1C(=O)c2ccccc2C1=O`: the T/C under setting [1] was 99 % of control; the T/C under setting [2] is 97 % of control; the T/C (endpoint: mean survival time, dose: 200.0 mg/kg/injection, schedule: Q01DX009 (ip), vehicle: Klucel (hydroxypropylcellulose) (HPC)) is 99 % of control.
On to `Cc1ccc(CC(F)(F)F)cc1`, for which the T/C by setting is: under setting [3], 100 % of control; under setting [4], 100 % of control; under setting [5], 108 % of control.
Consider `CCCCC(CC)CCC(OC(=O)CSC#N)C(C)CC` (stereo not given), for which the T/C is 97 % of control under setting [6], 91 % of control under setting [7] and 97 % of control under setting [8].
Consider `Nc1nc(=O)n(C2OC(CO)C(O)C2Cl)cc1I` (stereo not given), for which the T/C (endpoint: median survival time, dose: 12.5 mg/kg/injection, schedule: Q01DX005 (ip), vehicle: saline with Tween-80) was 97 % of control; the T/C (endpoint: median survival time, dose: 25.0 mg/kg/injection, schedule: Q01DX005 (ip), vehicle: saline with Tween-80) was 112 % of control; the T/C (endpoint: median survival time, dose: 50.0 mg/kg/injection, schedule: Q01DX005 (ip), vehicle: saline with Tween-80) was 104 % of control; the T/C (endpoint: median survival time, dose: 100.0 mg/kg/injection, schedule: Q01DX005 (ip), vehicle: saline with Tween-80) was 107 % of control; the T/C (endpoint: median survival time, dose: 200.0 mg/kg/injection, schedule: Q01DX005 (ip), vehicle: saline with Tween-80) is 104 % of control.
With `CCc1cc[c]([Sb](=[O])([OH])[OH])cc1`, the T/C by setting is: (endpoint: mean survival time, dose: 50.0 mg/kg/injection, schedule: Q04DX003 (ip), vehicle: saline) 89 % of control; (endpoint: mean survival time, dose: 100.0 mg/kg/injection, schedule: Q04DX003 (ip), vehicle: saline) 101 % of control; (endpoint: mean survival time, dose: 200.0 mg/kg/injection, schedule: Q04DX003 (ip), vehicle: saline) 101 % of control.
For `O=C1CSC(=O)N1` (tested in a mixture with another compound), the T/C under setting [6] was 96 % of control, the T/C under setting [7] is 96 % of control and the T/C under setting [8] is 107 % of control.
With `COc1cc(OC)c(NC(=O)OCCOc2cc(C)c(Cl)c(C)c2)cc1Cl`, the T/C was 95 % of control (endpoint: mean survival time, dose: 12.5 mg/kg/injection, schedule: Q01DX009 (ip), vehicle: saline with Tween-80); 95 % of control (endpoint: mean survival time, dose: 25.0 mg/kg/injection, schedule: Q01DX009 (ip), vehicle: saline with Tween-80); 98 % of control (endpoint: mean survival time, dose: 50.0 mg/kg/injection, schedule: Q01DX009 (ip), vehicle: saline with Tween-80); 88 % of control under setting [9].
As to `CN(C)C(=O)N1CC1`, the T/C is 98 % of control under setting [3], 98 % of control under setting [4] and 106 % of control under setting [5].
As for `CCOC(=O)N(C)CC1C(=O)Nc2ccccc21` (stereo not given), the T/C runs as follows: (endpoint: mean survival time, dose: 100.0 mg/kg/injection, schedule: Q04DX003 (ip), vehicle: Klucel (hydroxypropylcellulose) (HPC)) 105 % of control; (endpoint: mean survival time, dose: 200.0 mg/kg/injection, schedule: Q04DX003 (ip), vehicle: Klucel (hydroxypropylcellulose) (HPC)) 110 % of control; (endpoint: mean survival time, dose: 400.0 mg/kg/injection, schedule: Q04DX003 (ip), vehicle: Klucel (hydroxypropylcellulose) (HPC)) 102 % of control.
Turning to `O=c1c2ncn(C3OC(CO)C(O)C3O)c2nc[n]1[Hg][c]1ccccc1` (stereo not given), the T/C was 103 % of control (endpoint: median survival time, dose: 0.79 mg/kg/injection, schedule: Q01DX005 (ip), vehicle: saline); 111 % of control (endpoint: median survival time, dose: 1.56 mg/kg/injection, schedule: Q01DX005 (ip), vehicle: saline); 115 % of control (endpoint: median survival time, dose: 3.12 mg/kg/injection, schedule: Q01DX005 (ip), vehicle: saline); 105 % of control (endpoint: median survival time, dose: 6.25 mg/kg/injection, schedule: Q01DX005 (ip), vehicle: saline); 112 % of control (endpoint: median survival time, dose: 12.5 mg/kg/injection, schedule: Q01DX005 (ip), vehicle: saline).
On to `C1CN(CC2COC(CN3CCOCC3)CO2)CCO1` (stereo not given), for which the T/C runs as follows: (endpoint: mean survival time, dose: 100.0 mg/kg/injection, schedule: Q01DX009 (ip), vehicle: saline) 102 % of control; (endpoint: mean survival time, dose: 200.0 mg/kg/injection, schedule: Q01DX009 (ip), vehicle: saline) 102 % of control; (endpoint: mean survival time, dose: 400.0 mg/kg/injection, schedule: Q01DX009 (ip), vehicle: saline) 104 % of control.
As for `CCOC(=O)CSCc1ccc(C(C)(C)C)cc1`, the T/C runs as follows: under setting [6], 96 % of control; under setting [7], 98 % of control; under setting [8], 93 % of control.
Regarding `CC1(C)N=C(N)N=C(N)N1c1ccc(C(C#N)CCCc2ccccc2)cc1` (stereo not given), the T/C is 97 % of control (endpoint: mean survival time, dose: 25.0 mg/kg/injection, schedule: Q01DX009 (ip), vehicle: Klucel (hydroxypropylcellulose) (HPC)); 101 % of control under setting [1]; 91 % of control under setting [2].
Turning to `CC12CCC(OC3CCCCO3)CC1=CCC1C2CCC2(C)C1CCC2(O)CCN` (stereo not given), the T/C by setting is: (endpoint: mean survival time, dose: 6.25 mg/kg/injection, schedule: Q01DX005 (ip), vehicle: other) 100 % of control; (endpoint: mean survival time, dose: 12.5 mg/kg/injection, schedule: Q01DX005 (ip), vehicle: other) 97 % of control; (endpoint: mean survival time, dose: 15.6 mg/kg/injection, schedule: Q01DX001 (ip), vehicle: Klucel (hydroxypropylcellulose) (HPC)) 104 % of control; (endpoint: mean survival time, dose: 31.2 mg/kg/injection, schedule: Q01DX001 (ip), vehicle: Klucel (hydroxypropylcellulose) (HPC)) 96 % of control; (endpoint: mean survival time, dose: 62.5 mg/kg/injection, schedule: Q01DX001 (ip), vehicle: Klucel (hydroxypropylcellulose) (HPC)) 98 % of control.
Take `COC12C(COC(N)=O)C3=C(C(=O)C(C)=C(N4CC4)C3=O)N1CC1NC12` (stereo not given): the T/C was 124 % of control (endpoint: mean survival time, dose: 0.14 mg/kg/injection, schedule: Q01DX007 (ip), vehicle: acetone); 106 % of control (endpoint: mean survival time, dose: 0.25 mg/kg/injection, schedule: Q01DX001 (ip), vehicle: acetone); 116 % of control (endpoint: mean survival time, dose: 0.33 mg/kg/injection, schedule: Q01DX001 (ip), vehicle: acetone); 153 % of control (endpoint: mean survival time, dose: 0.5 mg/kg/injection, schedule: Q01DX007 (ip), vehicle: acetone); 151 % of control (endpoint: mean survival time, dose: 1.0 mg/kg/injection, schedule: Q01DX001 (ip), vehicle: carboxymethylcellulose (CMC)); 114 % of control (endpoint: mean survival time, dose: 1.5 mg/kg/injection, schedule: Q01DX001 (ip), vehicle: carboxymethylcellulose (CMC)).
On to `O=Cc1[nH]c(=S)[nH]c(=O)c1Cc1ccc(Cl)cc1`, for which the T/C under setting [3] was 104 % of control.
For the compound `Cc1ccc(S(=O)(=O)N2CCC2)cc1`, the T/C reads like this: under setting [9], 98 % of control; under setting [3], 100 % of control; under setting [10], 102 % of control; under setting [4], 100 % of control; under setting [11], 96 % of control; under setting [5], 97 % of control.
For `CCCCCCCCC/C(C)=N\NC(=O)c1ccccc1`, the T/C (endpoint: mean survival time, dose: 100.0 mg/kg/injection, schedule: Q01DX009 (ip), vehicle: saline sonified) is 100 % of control and the T/C (endpoint: mean survival time, dose: 400.0 mg/kg/injection, schedule: Q01DX009 (ip), vehicle: saline sonified) was 108 % of control.
Turning to `Cc1ccc(S(=O)(=O)N(C)c2ccc(I)cc2F)cc1`, the T/C is, setting by setting: under setting [9], 104 % of control; under setting [10], 95 % of control; under setting [11], 101 % of control.
`O=C(O)CC(=O)O.[NH-]CC(O)C[NH-].[Pt+2]`: the T/C (endpoint: median survival time, dose: 20.0 mg/kg/injection, schedule: Q04DX003 (ip), vehicle: water) is 96 % of control and the T/C (endpoint: median survival time, dose: 40.0 mg/kg/injection, schedule: Q04DX003 (ip), vehicle: water) is 110 % of control.
